In ChEMBL document CHEMBL5375996, “Discovery of Orally Available and Brain Penetrant AEP Inhibitors” (J Med Chem, 2023):

How the values were obtained:
in vitro = conditions: PAMPA
physchem = conditions: octanol/water

Row | Papp (in vitro) [×10⁻⁶ cm/s] | logD (physchem) | Compound
1 | 2.7 | – | N#C[C@H](CC(N)=O)NC(=O)[C@@H]1CCCN1C(=O)Cc1ccccc1
2 | – | 1.9 | NC(=O)CN(NC(=O)[C@@H]1CCCN1C(=O)C1(c2ccc(OC(F)(F)F)cc2)CC1)C(=O)CCl
3 | – | 2.1 | C#C[C@H](CC(N)=O)NC(=O)[C@@H]1CCCN1C(=O)[C@]1(c2ccc(OC(F)(F)F)cc2)C[C@@H](F)C1
4 | 1.5 | 2.3 | C#C[C@H](CC(N)=O)NC(=O)[C@@H]1C[C@H](C)CN1C(=O)C1(c2ccc(OC(F)(F)F)cc2)CC1
5 | – | 1.7 | C#C[C@H](CC(N)=O)NC(=O)[C@@H]1CCCN1C(=O)[C@]1(c2ccc(OC(F)(F)F)cc2)C[C@H](F)C1
6 | 2.8 | 2.2 | C#C[C@H](CC(N)=O)NC(=O)[C@@H]1C[C@@H](C)CN1C(=O)C1(c2ccc(OC(F)(F)F)cc2)CC1
7 | 2.9 | 0.5 | N#C[C@H](CC(N)=O)NC(=O)[C@@H]1CCCN1C(=O)C1(c2ccc(F)cc2)CC1
